From ChEMBL document CHEMBL6103672, “Discovery of HMPL-306 (Ranosidenib), a New Potent and Selective Dual Inhibitor of Mutant IDH1 and 2 in Clinical Development for Cancer Treatment” (ACS Med Chem Lett, 2025)

Key:
[1] = Half life in male ICR mouse at 10 mg/kg, po measured after 8 hrs by LC/MS/MS analysis; type: ADME, organism-based; settings: in vivo
[2] = Apparent permeability across apical to basolateral side in human Caco-2 cells at 10 uM incubated for 1 hrs by LC-MS/MS analysis
[3] = Clearance in male ICR mouse at 2.5 mg/kg, iv measured after 8 hrs by LC/MS/MS analysis; type: ADME, organism-based; settings: in vivo
[4] = Inhibition of IDH2 R140Q mutant in human U-87 MG cells incubated for 72 hrs by measuring 2-HG production by fluorescence based analysis; type: functional, cell-based, U-87MG ATCC; settings: Homo sapiens, U-87 MG, 72 h
Adenosine receptor A3 = target: T1, Adenosine receptor A3 (Homo sapiens, UniProt P0DMS8); assay: Inhibition of adenosine A3 receptor (unknown origin); type: toxicity
T1 sequence (P0DMS8 whole entry): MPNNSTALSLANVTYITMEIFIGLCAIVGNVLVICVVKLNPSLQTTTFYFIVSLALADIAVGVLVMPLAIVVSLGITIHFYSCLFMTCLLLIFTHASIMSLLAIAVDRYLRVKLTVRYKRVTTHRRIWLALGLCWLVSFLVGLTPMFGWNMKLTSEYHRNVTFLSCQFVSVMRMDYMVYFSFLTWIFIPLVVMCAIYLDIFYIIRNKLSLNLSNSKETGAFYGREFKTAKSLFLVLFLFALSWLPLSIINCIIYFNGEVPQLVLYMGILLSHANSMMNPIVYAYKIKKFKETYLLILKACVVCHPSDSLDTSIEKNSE

[5] = Clearance in male Sprague-Dawley rat at 1 mg/kg, iv measured after 24 hrs by LC/MS/MS analysis; type: ADME, organism-based; settings: in vivo
[6] = Inhibition of IDH2 R140Q mutant in human TF-1 cells incubated for 72 hrs by measuring 2-HG production by fluorescence based analysis; type: functional, cell-based; settings: TF-1, 72 h
[7] = target: Voltage-gated inwardly rectifying potassium channel KCNH2 (Homo sapiens, UniProt Q12809); assay: Inhibition of hERG expressed in CHO cells by manual patch-clamp assay; type: toxicity, cell-based
Chain of Voltage-gated inwardly rectifying potassium channel KCNH2 (Q12809 whole entry): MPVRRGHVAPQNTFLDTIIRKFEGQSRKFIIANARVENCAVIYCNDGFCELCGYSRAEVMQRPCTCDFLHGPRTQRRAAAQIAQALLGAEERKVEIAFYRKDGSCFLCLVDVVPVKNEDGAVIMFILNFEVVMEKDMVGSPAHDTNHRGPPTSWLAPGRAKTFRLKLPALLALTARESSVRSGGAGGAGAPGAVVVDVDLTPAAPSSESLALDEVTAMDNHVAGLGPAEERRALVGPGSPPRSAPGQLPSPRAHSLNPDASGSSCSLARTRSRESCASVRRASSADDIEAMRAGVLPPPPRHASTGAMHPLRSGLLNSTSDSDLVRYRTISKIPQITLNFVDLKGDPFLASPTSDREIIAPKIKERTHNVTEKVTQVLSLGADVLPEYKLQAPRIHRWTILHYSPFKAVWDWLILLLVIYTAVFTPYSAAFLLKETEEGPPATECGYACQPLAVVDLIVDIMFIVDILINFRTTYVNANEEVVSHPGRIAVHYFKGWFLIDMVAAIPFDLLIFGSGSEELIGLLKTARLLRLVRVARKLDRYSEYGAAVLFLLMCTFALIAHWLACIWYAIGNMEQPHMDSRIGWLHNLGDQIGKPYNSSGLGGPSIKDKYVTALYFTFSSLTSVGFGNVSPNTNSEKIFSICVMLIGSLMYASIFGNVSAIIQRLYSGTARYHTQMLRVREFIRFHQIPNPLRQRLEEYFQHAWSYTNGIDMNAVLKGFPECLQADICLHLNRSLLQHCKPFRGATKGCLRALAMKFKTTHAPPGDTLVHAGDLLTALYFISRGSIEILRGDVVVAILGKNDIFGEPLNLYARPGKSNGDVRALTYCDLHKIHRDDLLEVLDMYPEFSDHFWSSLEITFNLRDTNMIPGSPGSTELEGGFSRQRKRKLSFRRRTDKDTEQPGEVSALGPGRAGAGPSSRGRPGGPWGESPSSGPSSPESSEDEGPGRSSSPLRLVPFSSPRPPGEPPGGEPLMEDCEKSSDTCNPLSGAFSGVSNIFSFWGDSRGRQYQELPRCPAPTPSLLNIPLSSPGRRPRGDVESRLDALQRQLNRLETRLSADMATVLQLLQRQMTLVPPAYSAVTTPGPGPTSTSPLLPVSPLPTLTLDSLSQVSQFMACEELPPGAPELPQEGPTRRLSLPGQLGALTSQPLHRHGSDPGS

[8] = In vivo inhibition of 2-HG in BALB/c nude mouse xenografted with human U-87 MG cells harboring IDH2 R140Q mutant at 25 mg/kg, po measured after 40 hrs post dose; type: functional; settings: Mus musculus, BALB/c, U-87 MG
[9] = Inhibition of IDH2 R172K mutant in human HEK293 cells incubated for 72 hrs by measuring 2-HG production by fluorescence based analysis; type: functional, cell-based; settings: HEK293, 72 h
[10] = Metabolic stability in male ICR mouse liver microsomes assessed as parent compound remaining at 1 uM measured after 30 mins in presence of NADPH by LC-MS analysis; type: ADME, Microsome; settings: read-out: Stability
[11] = Apparent permeability across basolateral to apical side in human Caco-2 cells at 10 uM incubated for 1 hrs by LC-MS/MS analysis
[12] = In vivo inhibition of 2-HG in BALB/c nude mouse xenografted with human HT-1080 cells harboring IDH1 R132C mutant at 25 mg/kg, po measured after 16 to 40 hrs post dose; type: functional; settings: time 16-40 hrs
[13] = Cmax in male Sprague-Dawley rat at 5 mg/kg, po measured after 24 hrs by LC/MS/MS analysis; type: ADME, organism-based; settings: in vivo
[14] = Inhibition of IDH1 R132H mutant in human TF-1 cells incubated for 72 hrs by measuring 2-HG production by fluorescence based analysis; type: functional, cell-based; settings: TF-1, 72 h
[15] = Cmax in male ICR mouse at 10 mg/kg, po measured after 8 hrs by LC/MS/MS analysis; type: ADME, organism-based; settings: in vivo
[16] = Inhibition of IDH1 R132H mutant in human U-87 MG cells incubated for 72 hrs by measuring 2-HG production by fluorescence based analysis; type: functional, cell-based, U-87MG ATCC; settings: Homo sapiens, U-87 MG, 72 h
[17] = In vivo inhibition of 2-HG in BALB/c nude mouse xenografted with human U-87 MG cells harboring IDH2 R140Q mutant at 25 mg/kg, po measured after 24 hrs post dose; type: functional; settings: Mus musculus, BALB/c, U-87 MG
[18] = AUC(0 to t) in male Sprague-Dawley rat at 5 mg/kg, po measured after 144 hrs by LC/MS/MS analysis; type: ADME, organism-based; settings: in vivo
[19] = Metabolic stability in male SD rat liver microsomes assessed as parent compound remaining at 1 uM measured after 30 mins in presence of NADPH by LC-MS analysis; type: ADME, Microsome; settings: Sprague-Dawley, read-out: Stability
[20] = Oral bioavailability in male ICR mouse at 10 mg/kg measured after 8 hrs by LC/MS/MS analysis; type: ADME, organism-based; settings: in vivo
[21] = AUC(0 to infinity) in male Sprague-Dawley rat at 5 mg/kg, po measured after 24 hrs by LC/MS/MS analysis; type: ADME, organism-based; settings: in vivo
[22] = AUC(0 to infinity) in male ICR mouse at 2.5 mg/kg, iv measured after 8 hrs by LC/MS/MS analysis; type: ADME, organism-based; settings: in vivo
[23] = Ratio of drug concentration in brain to plasma of BALB/c nude mouse xenografted with human U-87 MG cells harboring IDH2 R140Q mutant at 50 mg/kg measured after 24 hrs by LC/MS/MS analysis; type: ADME, organism-based; settings: read-out: BPR
[24] = In vivo inhibition of 2-HG in BALB/c nude mouse xenografted with human U-87 MG cells harboring IDH2 R140Q mutant at 25 mg/kg, po measured after 16 hrs post dose; type: functional
[25] = Half life in male Sprague-Dawley rat at 1 mg/kg, iv measured after 24 hrs by LC/MS/MS analysis; type: ADME, organism-based; settings: in vivo
[26] = AUC(0 to t) in male Sprague-Dawley rat at 1 mg/kg, iv measured after 144 hrs by LC/MS/MS analysis; type: ADME, organism-based; settings: in vivo
[27] = Volume of distribution at steady state in male Sprague-Dawley rat at 1 mg/kg, iv measured after 24 hrs by LC/MS/MS analysis; type: ADME, organism-based; settings: in vivo, read-out: Vdss
[28] = AUC(0 to infinity) in male ICR mouse at 10 mg/kg, po measured after 8 hrs by LC/MS/MS analysis; type: ADME, organism-based; settings: in vivo
[29] = Half life in male Sprague-Dawley rat at 5 mg/kg, po measured after 24 hrs by LC/MS/MS analysis; type: ADME, organism-based; settings: in vivo
[30] = Half life in male ICR mouse at 2.5 mg/kg, iv measured after 8 hrs by LC/MS/MS analysis; type: ADME, organism-based; settings: in vivo
[31] = Oral bioavailability in male Sprague-Dawley rat at 5 mg/kg measured after 24 hrs by LC/MS/MS analysis; type: ADME, organism-based; settings: in vivo

half-life [1]: 20.2 h | Papp A→B at 1 h, 10 µM [2]: 53.3 ×10⁻⁶ cm/s | clearance [3]: 3.3 mL/min/kg | IC50 [4]: 31 nM | clearance [5]: 0.8 mL/min/kg | IC50 [6]: 21 nM | IC50 [9]: 425 nM | remaining at 0.5 h, 1 µM [10]: 98.4% | Papp B→A at 1 h, 10 µM [11]: 24 ×10⁻⁶ cm/s | Cmax [13]: 1490 ng/mL | IC50 [14]: 31 nM | Cmax [15]: 2050 ng/mL | IC50 [16]: 50 nM | AUC(0-t) at 144 h [18]: 96600 ng·h/mL | remaining at 0.5 h, 1 µM [19]: 99.5% | bioavailability [20]: 84.2% | AUC(0-inf) [21]: 112000 ng·h/mL | AUC(0-inf) [22]: 12700 ng·h/mL | Kp at 24 h [23]: 2.9 | half-life [25]: 49.9 h | AUC(0-t) at 144 h [26]: 17100 ng·h/mL | Vd [27]: 3.67 L/kg | AUC(0-inf) [28]: 62000 ng·h/mL | half-life [29]: 50.4 h | half-life [30]: 10.6 h | bioavailability [31]: 113%
Structure (SMILES): C[C@@H](Nc1nc(N[C@H](C)C(F)(F)F)nc(C2=C(F)[C@H](O)C(F)(F)CC2)n1)C(F)(F)F [RANOSIDENIB]
IC50 (Adenosine receptor A3): 8500 nM | IC50 [7]: > 30000 nM | inhibition in vivo at 25 mg/kg [8]: 93% | inhibition in vivo at 25 mg/kg [12]: ≥ 90% | inhibition in vivo at 25 mg/kg [17]: 98% | inhibition in vivo at 25 mg/kg [24]: 96%
